ChEMBL document CHEMBL1201862, “PubChem BioAssay data set” (2004)
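Cultured in 96-well plates, cells were exposed to test compound for 48 hours across five concentrations. At the GI50, growth is halved.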 Calls of active or inactive are those of the source. Cut-off read from the data, not from the text of the source: active = GI50 up to about 1.1 µM and inactive = higher.

Key:
Test in all cases: inhibition of tumour cell growth, NCI panel, 48 h
[1] = system: A498
[2] = system: ACHN
[3] = system: DU-145
[4] = system: EKVX
[5] = system: HCT-15
[6] = system: MDA-MB-231
[7] = system: MDA-MB-435
[8] = system: MDA-N
[9] = system: MOLT-4
[10] = system: Malme-3M
[11] = system: NCI-H522
[12] = system: PC-3
[13] = system: SF-268
[14] = system: SF-295
[15] = system: SF-539
[16] = system: SK-MEL-28
[17] = system: SK-OV-3
[18] = system: SR
[19] = system: UACC-257
[20] = system: UACC-62

## Cc1nc2c(N3CCCC3)nc(N3CCNCC3)nc2nc1NCc1ccccc1
[1]
  GI50: 4.79 µM (inactive)
[2]
  GI50: 5.12 µM (inactive)
[3]
  GI50: 6.52 µM (inactive)
[4]
  GI50: 8.11 µM (inactive)
[5]
  GI50: 2.09 µM
[6]
  GI50: 2.95 µM (inactive)
[7]
  GI50: 2.24 µM (inactive)
[8]
  GI50: 1.61 µM (inactive)
[9]
  GI50: 2.52 µM (inactive)
[10]
  GI50: 2.04 µM (inactive)
[11]
  GI50: 1.65 µM (inactive)
[12]
  GI50: 5.05 µM (inactive)
[13]
  GI50: 3.85 µM (inactive)
[14]
  GI50: 2.04 µM (inactive)
[15]
  GI50: 2.65 µM (inactive)
[16]
  GI50: 1.95 µM (inactive)
[17]
  GI50: 7.69 µM (inactive)
[18]
  GI50: 2.84 µM (inactive)
[19]
  GI50: 1.94 µM (inactive)
[20]
  GI50: 2.79 µM (inactive)

## COc1ccc(/N=C2\C(=O)C3=C(OC(C)(C)CC3)c3ccccc32)cc1
[1]
  GI50: 7.91 µM (inactive)
[2]
  GI50: 0.845 µM (active)
[3]
  GI50: 0.871 µM (active)
[4]
  GI50: 0.993 µM (active)
[5]
  GI50: 1.05 µM
[6]
  GI50: 1.41 µM (inactive)
[7]
  GI50: 0.264 µM (active)
[8]
  GI50: 0.492 µM (active)
[9]
  GI50: 2.11 µM (inactive)
[10]
  GI50: 0.791 µM (active)
[11]
  GI50: 1.04 µM (active)
[12]
  GI50: 1.29 µM (inactive)
[13]
  GI50: 1.8 µM (inactive)
[14]
  GI50: 0.863 µM (active)
[15]
  GI50: 0.005 µM (active)
[16]
  GI50: 1.14 µM (inactive)
[17]
  GI50: 1.53 µM (inactive)
[18]
  GI50: 0.935 µM (active)
[19]
  GI50: 0.968 µM (active)
[20]
  GI50: 0.94 µM (active)

## COc1ccc(/C(=N/N=c2[nH]c3ccccc3[nH]2)C(=O)O)cc1
[1]
  GI50: > 100 µM (inactive)
[2]
  GI50: > 100 µM (inactive)
[3]
  GI50: > 100 µM (inactive)
[4]
  GI50: > 100 µM (inactive)
[5]
  GI50: > 100 µM
[6]
  GI50: > 100 µM (inactive)
[7]
  GI50: > 100 µM (inactive)
[8]
  GI50: > 100 µM (inactive)
[9]
  GI50: > 100 µM (inactive)
[10]
  GI50: > 100 µM (inactive)
[11]
  GI50: > 100 µM (inactive)
[12]
  GI50: > 100 µM (inactive)
[13]
  GI50: > 100 µM (inactive)
[14]
  GI50: > 100 µM (inactive)
[15]
  GI50: > 100 µM (inactive)
[16]
  GI50: > 100 µM (inactive)
[17]
  GI50: > 100 µM (inactive)
[18]
  GI50: > 100 µM (inactive)
[19]
  GI50: > 100 µM (inactive)
[20]
  GI50: > 100 µM (inactive)

## O=C(O)C1CCCN1Cc1c[nH]c2ccccc12 (configuration not stated)
[1]
  GI50: > 100 µM (inactive)
[2]
  GI50: > 100 µM (inactive)
[3]
  GI50: > 100 µM (inactive)
[4]
  GI50: > 100 µM (inactive)
[5]
  GI50: > 100 µM
[6]
  GI50: > 100 µM (inactive)
[7]
  GI50: > 100 µM (inactive)
[8]
  GI50: > 100 µM (inactive)
[9]
  GI50: > 100 µM (inactive)
[10]
  GI50: > 100 µM (inactive)
[11]
  GI50: > 100 µM (inactive)
[12]
  GI50: > 100 µM (inactive)
[13]
  GI50: > 100 µM (inactive)
[14]
  GI50: > 100 µM (inactive)
[15]
  GI50: > 100 µM (inactive)
[16]
  GI50: > 100 µM (inactive)
[17]
  GI50: > 100 µM (inactive)
[18]
  GI50: > 100 µM (inactive)
[19]
  GI50: > 100 µM (inactive)
[20]
  GI50: > 100 µM (inactive)

## O=C(CCc1cc(O)ccc1O)OCCc1ccccc1
[1]
  GI50: > 100 µM (inactive)
[2]
  GI50: 4.33 µM (inactive)
[3]
  GI50: 19.9 µM (inactive)
[4]
  GI50: 16.6 µM (inactive)
[5]
  GI50: 11.1 µM
[6]
  GI50: 15.6 µM (inactive)
[7]
  GI50: 10.4 µM (inactive)
[8]
  GI50: 12.7 µM (inactive)
[9]
  GI50: 1.36 µM (inactive)
[10]
  GI50: 12.6 µM (inactive)
[11]
  GI50: 0.28 µM (active)
[12]
  GI50: 4.91 µM (inactive)
[13]
  GI50: 5.64 µM (inactive)
[14]
  GI50: 37.5 µM (inactive)
[15]
  GI50: 3.83 µM (inactive)
[16]
  GI50: 25.1 µM (inactive)
[17]
  GI50: > 100 µM (inactive)
[18]
  GI50: 5.6 µM (inactive)
[19]
  GI50: 12.4 µM (inactive)
[20]
  GI50: 12.4 µM (inactive)

## C=C(OC1C(C)=C2C(C1OC(=O)CCCCCCC)C(C)(OC(C)=O)CC(OC(=O)CCC)C1(O)C2OC(=O)C1(C)O)/C(C)=C/C (configuration not stated)
[1]
  GI50: 0.0125 µM (active)
[2]
  GI50: 0.000585 µM (active)
[3]
  GI50: < 0.0001 µM (active)
[4]
  GI50: 0.0334 µM (active)
[5]
  GI50: 0.0316 µM
[6]
  GI50: < 0.0001 µM (active)
[7]
  GI50: < 0.0001 µM (active)
[8]
  GI50: < 0.0001 µM (active)
[9]
  GI50: 0.0125 µM (active)
[10]
  GI50: 0.0125 µM (active)
[11]
  GI50: 0.0125 µM (active)
[12]
  GI50: < 0.0001 µM (active)
[13]
  GI50: 0.0125 µM (active)
[14]
  GI50: 0.0125 µM (active)
[15]
  GI50: 0.0125 µM (active)
[16]
  GI50: 0.0125 µM (active)
[17]
  GI50: 0.34 µM (active)
[18]
  GI50: 0.000145 µM (active)
[19]
  GI50: 0.0125 µM (active)
[20]
  GI50: 0.0125 µM (active)

## CCN(CC)/[N+]([O-])=N/OCOC(C)=O
[1]
  GI50: > 100 µM (inactive)
[2]
  GI50: > 100 µM (inactive)
[3]
  GI50: > 100 µM (inactive)
[4]
  GI50: > 100 µM (inactive)
[5]
  GI50: > 100 µM
[6]
  GI50: > 100 µM (inactive)
[7]
  GI50: > 100 µM (inactive)
[8]
  GI50: > 100 µM (inactive)
[9]
  GI50: > 100 µM (inactive)
[10]
  GI50: > 100 µM (inactive)
[11]
  GI50: > 100 µM (inactive)
[12]
  GI50: > 100 µM (inactive)
[13]
  GI50: > 100 µM (inactive)
[14]
  GI50: > 100 µM (inactive)
[15]
  GI50: > 100 µM (inactive)
[16]
  GI50: > 100 µM (inactive)
[17]
  GI50: > 100 µM (inactive)
[18]
  GI50: 43.4 µM (inactive)
[19]
  GI50: > 100 µM (inactive)
[20]
  GI50: > 100 µM (inactive)

## COc1ccc(CN2C(=O)CCC/C=C\[C@H]2CI)cc1
[1]
  GI50: 12.5 µM (inactive)
[2]
  GI50: 14.3 µM (inactive)
[3]
  GI50: 13.3 µM (inactive)
[4]
  GI50: 10.7 µM (inactive)
[5]
  GI50: 12.4 µM
[6]
  GI50: 11 µM (inactive)
[7]
  GI50: 12.7 µM (inactive)
[8]
  GI50: 13.1 µM (inactive)
[9]
  GI50: 10.1 µM (inactive)
[10]
  GI50: 11.1 µM (inactive)
[11]
  GI50: 12.7 µM (inactive)
[12]
  GI50: 8.07 µM (inactive)
[13]
  GI50: 13.4 µM (inactive)
[14]
  GI50: 13.5 µM (inactive)
[15]
  GI50: 13.6 µM (inactive)
[16]
  GI50: 12.6 µM (inactive)
[17]
  GI50: 16 µM (inactive)
[18]
  GI50: 11.5 µM (inactive)
[19]
  GI50: 10.1 µM (inactive)
[20]
  GI50: 10.8 µM (inactive)

## O=[N+]([O-])/C(Cl)=C(/C(Cl)=C(Cl)Cl)N1CCCCC1
[1]
  GI50: 18.4 µM (inactive)
[2]
  GI50: 16.1 µM (inactive)
[3]
  GI50: 14 µM (inactive)
[4]
  GI50: 20.3 µM (inactive)
[5]
  GI50: 4.36 µM
[6]
  GI50: 24 µM (inactive)
[7]
  GI50: 8.81 µM (inactive)
[8]
  GI50: 8.34 µM (inactive)
[9]
  GI50: 3.27 µM (inactive)
[10]
  GI50: 2.7 µM (inactive)
[11]
  GI50: 6.44 µM (inactive)
[12]
  GI50: 18.8 µM (inactive)
[13]
  GI50: 11.9 µM (inactive)
[14]
  GI50: 23.7 µM (inactive)
[15]
  GI50: 16.4 µM (inactive)
[16]
  GI50: 14.5 µM (inactive)
[17]
  GI50: 28.5 µM (inactive)
[18]
  GI50: 3.16 µM (inactive)
[20]
  GI50: 4.21 µM (inactive)

## O=C(Cc1cccs1)N[C@@H]1C(=O)N2C(C(=O)OC(c3ccccc3)c3ccccc3)=C(CO)CS[C@H]12
[1]
  GI50: > 100 µM (inactive)
[2]
  GI50: 91.8 µM (inactive)
[3]
  GI50: > 100 µM (inactive)
[4]
  GI50: > 100 µM (inactive)
[5]
  GI50: 92.7 µM
[6]
  GI50: > 100 µM (inactive)
[7]
  GI50: 65.9 µM (inactive)
[8]
  GI50: > 100 µM (inactive)
[9]
  GI50: > 100 µM (inactive)
[10]
  GI50: 40.7 µM (inactive)
[11]
  GI50: 16.8 µM (inactive)
[12]
  GI50: > 100 µM (inactive)
[14]
  GI50: > 100 µM (inactive)
[15]
  GI50: > 100 µM (inactive)
[17]
  GI50: > 100 µM (inactive)
[18]
  GI50: 47.4 µM (inactive)
[19]
  GI50: > 100 µM (inactive)
[20]
  GI50: > 100 µM (inactive)
